Consider seven compounds from patent publication US10988481B2, “Potent and selective mu opioid receptor modulators” (VIRGINIA COMMONWEALTH UNIVERSITY, priority 2016, dated 2021).

The target of series [1] is MOR (Homo sapiens (Human), UniProt P35372). Particulars: background statement; cited from earlier work.
Another series addresses KOR (Homo sapiens (Human), UniProt P41145). Kind of series: Competition binding assay at KOR ([3H]DPN, CHO cell membranes). The method, then:
(§1) Chinese hamster ovary (CHO) cells expressing MOR, KOR and DOR were cultured for use in this assay. The culture media used for MOR CHO cells contained 500 mL DMEM/F12 media, 10% FBS, 1% penicillin/streptomycin, and 2.75 mL G418. The DOR and KOR CHO cells were cultured in the same media except that 5% FBS was used instead of 10%. The cells are allowed to grow until they are 80-95% confluent after which they are split. The cells are continuously cultured and split until there were sufficient cells for the studies.
(§2) Once the cells reached confluence, cells were harvested, centrifuged at 1000×g for 10 minutes, and suspended in membrane buffer (50 mM Tris, 3 mM MgCl2, and 1 mM EGTA, pH 7.4). The cells were then homogenized, centrifuged at 50000×g for 10 minutes, and re-homogenized in membrane buffer. A Bradford assay was conducted to determine membrane protein concentrations, and membrane protein preps (3 μg/aliquot) were stored at −80° C.
(§3) The competition binding assay was conducted to determine the affinity and selectivity of the synthesized compounds to MOR over KOR and DOR. The Kd and Bmax values for [^3H]NLX at MOR and [^3H]DPN at KOR had been determined previously. […] [^3H]NLX was used to label MOR whilst [^3H]DPN was used to label both DOR and KOR. The potency of the new compounds in displacing the specific binding of the radioligand was determined by linear regression analysis of Hill plots. […] The IC50 values were determined and converted to Ki values using the Cheng—Prusoff equation (Rosenblum, A. et al. Exp Clin Psychopharmacol. 2008, 16 (5), 405-416).

Series [2] has as its target T1, DOR (Homo sapiens (Human), UniProt P41143). Briefly: Competition binding assay at DOR ([3H]DPN, CHO cell membranes). The method, then: as §1, §2, §3
Series [3] has as its system Swiss Webster mice. Briefly: Warm-water tail immersion assay, antinociceptive (agonist) effect. The following applies: 10 mg/kg s.c., tail flick 20 min after injection, 56 °C. The class given is in vivo. Here is the method:
(§4) FIG. 1A-D. Warm-water tail immersion assay in mice (n=5) at 56±0.1° C. All tested compounds were administered subcutaneously (s.c.). […] Compounds (10 mg/kg) were injected at Time 0. Twenty minutes after injection, tail flick was assessed with hot water. […] Tested compounds (10 mg/kg) were injected at Time 0. Five minutes later, morphine (10 mg/kg) was administered. Twenty minutes after morphine injection, tail flick was tested using hot water.
(§5) For the in vivo studies, male Swiss Webster mice were used for both the warm-water immersion and opioid withdrawal assays. The mice weighed 23-35 g and were housed five to a cage in animal care quarters maintained at 22° C. on a 12 hour light-dark cycle with food and water available ad libitum. The mice were transferred to the test room and the tests were then conducted 18 hours later. Protocols and procedures were approved by the Institutional Animal Care and Use Committee at Virginia Commonwealth University Medical Center and complied with the recommendations of the International Association for the Study of Pain.
Each indole analogue of naltrexamine was tested for its ability to produce antinociception and/or to antagonize the antinociceptive effects of morphine in mice using the warm-water tail immersion assay described by Coderre and Rollman. The a water bath temperature was maintained at 56±0.1° C. The baseline latency (control) was determined before injecting the compounds into the mice. […] To test for agonism, the tail immersion was conducted 20 min (time that morphine effect starts to peak) after injecting the indole analogues of 6α/β-naltrexamine. To prevent tissue damage, a 10 s maximum cut off time was imposed. Antinociceptive response was calculated as the percentage maximum possible effect (% MPE), where % MPE=[(test−control)/(10−control)]×100. […] The tail immersion test was conducted 20 min after giving morphine. % MPE was calculated for each mouse using at least five mice per drug. AD50 values were calculated using the least-squares linear regression analysis followed by calculation of 95% confidence interval by Bliss method. […]

For series [4], the target named is MOR (Mus musculus, UniProt P42866). The class given is biochemical. Particulars: relative to 3 μM DAMGO at MOR. The method, then:
The [^35S]GTPγS functional assay was used to determine whether the synthesized compounds are agonists. The agonist's activity of the compounds was measured relative to 3 μM DAMGO at MOR. In this assay, upon receptor activation due to agonist binding, [^35S]GTPγS binds to the Gα subunit. Thus, [^35S]GTPγS replaces endogenous GTP and since the γ-thiophosphate bond is resistant to hydrolysis by GTPase, [^35S]GTPγS labelled Gα subunits accumulate and can be quantified by measuring the amount of incorporated [^35S].
The Bradford assay was then conducted to determine the concentration of the membrane protein using BSA as the standard. Suitable dilutions of membrane protein, [^35S]GTPγS), cold GTPγS, DAMGO and GDP were made in TME. The desired amount of the protein per tube was 10 μg. All the test-tubes were vortexed and incubated in the shaking water bath at 30° C. for 90 minutes, after which bound radioligand was filtered and rinsed three times with cold Tris buffer. The filtered bound radioligand was then transferred into scintillation tubes with 4 mL of scintillation fluid and radioligand was quantified. However, counting was delayed for 9 hrs to allow the radioactivity to enter the solution. Percent DAMGO stimulation was defined as (net stimulated binding of test compound/net stimulated binding of DAMGO)×100%. The normalized data were subjected to nonlinear regression analysis to determine EC50 and Emax values using Prism 6.0 software (GraphPad Software, San Diego, Calif.). The assay was performed in triplicate and repeated at least three times.

In series [5] the test system is Swiss Webster mice. Briefly: Warm-water tail immersion assay, blockage of the antinociceptive effect of morphine. The following applies: for Blockage of morphine-mediated antinociception: 10 mg/kg s.c. 5 min before morphine 10 mg/kg, tested 20 min after morphine; for AD50 (95% CL), opioid antagonist effect: dose-dependent study against morphine, s.c. The method, then:
as §4, §5
Each indole analogue of naltrexamine was tested for its ability to produce antinociception and/or to antagonize the antinociceptive effects of morphine in mice using the warm-water tail immersion assay described by Coderre and Rollman. The a water bath temperature was maintained at 56±0.1° C. The baseline latency (control) was determined before injecting the compounds into the mice. […] To test for agonism, the tail immersion was conducted 20 min (time that morphine effect starts to peak) after injecting the indole analogues of 6α/β-naltrexamine. To prevent tissue damage, a 10 s maximum cut off time was imposed. Antinociceptive response was calculated as the percentage maximum possible effect (% MPE), where % MPE=[(test−control)/(10−control)]×100. In the antagonism study, the 6α/β-naltrexamine derivatives were given 5 min before morphine. The tail immersion test was conducted 20 min after giving morphine. % MPE was calculated for each mouse using at least five mice per drug. AD50 values were calculated using the least-squares linear regression analysis followed by calculation of 95% confidence interval by Bliss method. A higher % MPE indicates a stronger antinociception effect by the ligand.

Series [6] addresses T1, DOR. The following applies: read-out: Ki (nM) ± SEM δ; values obtained from previous experiments; cited from earlier work.
Another series has as its system morphine-pelleted mice. Kind of series: Opioid withdrawal assay in chronic morphine-exposed (pelleted) mice. The method, then: as §5
A 75 mg morphine pellet was implanted in to the base of the neck of the mice and the mice were then given time to recover in their home cages before the test was conducted. The mice were then allowed for 30 min habituation to an open-topped, square, clear Plexiglas observation chamber (26×26×26 cm^3) with lines partitioning the bottom into quadrants before they were given antagonist. All drugs and test compounds were administered subcutaneously (s.c.). […] Withdrawal commenced within 3 min after antagonist administration. Escape jumps, paw tremors and wet dog shakes were quantified by counting their occurrences over 20 min for each mouse using five mice per drug. The data is given as the mean±SEM. One-way ANOVA followed by the post hoc Dunnett test were performed to assess significance using the Prism 6.0 software.

[7] abbreviates: [3H]DPN, KOR CHO membranes, read-out: Ki (nM) ± SEM κ.
Where [8] appears, read: [3H]DPN, DOR CHO membranes, read-out: Ki (nM) ± SEM δ.
Setting [9] is: 50 mg/kg s.c., morphine-pelleted mice.

Like-named read-outs stand apart in the source and are kept apart here.

Chain of MOR (Mus musculus, UniProt P42866) (P42866 whole entry, looked up): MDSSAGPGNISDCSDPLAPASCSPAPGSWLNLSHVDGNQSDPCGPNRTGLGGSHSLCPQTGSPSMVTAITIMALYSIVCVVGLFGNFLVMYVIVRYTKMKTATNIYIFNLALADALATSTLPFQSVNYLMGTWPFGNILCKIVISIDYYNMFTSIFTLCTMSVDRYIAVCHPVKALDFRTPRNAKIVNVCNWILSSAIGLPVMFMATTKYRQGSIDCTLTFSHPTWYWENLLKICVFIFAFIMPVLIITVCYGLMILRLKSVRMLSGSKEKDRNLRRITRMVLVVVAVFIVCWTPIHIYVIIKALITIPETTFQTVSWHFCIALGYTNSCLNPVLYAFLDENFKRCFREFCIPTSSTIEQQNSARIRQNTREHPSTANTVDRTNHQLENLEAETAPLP
T1 sequence (P41143 whole entry, looked up): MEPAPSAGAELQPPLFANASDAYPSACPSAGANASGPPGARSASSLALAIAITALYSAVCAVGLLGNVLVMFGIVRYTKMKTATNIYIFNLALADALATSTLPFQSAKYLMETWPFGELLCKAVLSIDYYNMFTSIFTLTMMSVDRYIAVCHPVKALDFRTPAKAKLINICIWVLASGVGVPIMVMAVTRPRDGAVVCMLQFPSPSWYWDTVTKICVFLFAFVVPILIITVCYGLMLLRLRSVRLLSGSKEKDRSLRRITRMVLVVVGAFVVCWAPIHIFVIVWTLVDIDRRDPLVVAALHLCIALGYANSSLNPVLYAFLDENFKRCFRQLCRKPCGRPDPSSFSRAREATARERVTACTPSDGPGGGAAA
Chain of MOR (Homo sapiens (Human), UniProt P35372) (P35372 whole entry): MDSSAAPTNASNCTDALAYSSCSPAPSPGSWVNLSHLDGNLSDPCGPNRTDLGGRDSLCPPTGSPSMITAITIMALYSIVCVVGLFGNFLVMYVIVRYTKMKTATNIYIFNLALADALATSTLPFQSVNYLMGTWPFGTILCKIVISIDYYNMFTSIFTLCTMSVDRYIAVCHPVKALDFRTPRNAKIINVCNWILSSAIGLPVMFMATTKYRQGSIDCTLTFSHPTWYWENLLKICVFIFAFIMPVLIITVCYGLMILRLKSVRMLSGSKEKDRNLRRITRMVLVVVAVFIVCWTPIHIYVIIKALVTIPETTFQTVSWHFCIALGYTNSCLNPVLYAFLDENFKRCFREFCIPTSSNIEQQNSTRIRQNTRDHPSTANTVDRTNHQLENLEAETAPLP

For the compound `COc1cccc2c1[C@]13CCN(CC4CC4)[C@H](C2)[C@]1(OC)CCC(=O)C3` [Cyprodime], on MOR [1], the “Selectivity DOR/MOR (MOR over DOR)” value is recorded as “≈ 39 fold” and the “Selectivity KOR/MOR” value was “≈ 10”.

`Cl.O=C(N[C@@H]1CC[C@@]2(O)[C@H]3Cc4ccc(O)c5c4[C@@]2(CCN3CC2CC2)[C@H]1O5)c1cc2ccccc2[nH]1` [Compound 10, 17-Cyclopropylmethyl-3,14β-dihydroxy-4,5α-epoxy-6β-(indole-2-carboxamido)morphinan]: the Ki on KOR was determined as 0.178 ± 0.002 nM; on DOR [2], 1.54 ± 0.473 nM. For the same compound, the “Antinociceptive effect (agonism) in warm-water immersion assay” value (shortened to “Antinociceptive effect (agonism)”) in the series on Swiss Webster mice [3] was “opioid agonist”.

As for `Cl.O=C(CCCc1c[nH]c2ccccc12)N[C@@H]1CC[C@@]2(O)[C@H]3Cc4ccc(O)c5c4[C@@]2(CCN3CC2CC2)[C@H]1O5` [Compound 18, 17-Cyclopropylmethyl-3,14β-dihydroxy-4,5α-epoxy-6β-[4-(indol-3-yl)butanamido)morphinan], the Ki on KOR (setting [7]) was 0.175 ± 0.037 nM. Besides, the Ki on DOR [2] (setting [8]) was found to be 25.3 ± 4.34 nM. In addition, at MOR [4], the “Emax(% DAMGO) ± SEM” value turned out to be 36.29 ± 4.11 % DAMGO. Moreover, in the series on Swiss Webster mice [5], the “Blockage of morphine-mediated antinociception” value (from here on “Blockage”) was “effectively blocked morphine-mediated antinociception” and the “AD50 (95% CL), opioid antagonist effect” value is 9.64 (3.17-29.29) mg/kg.

Take `Cl.O=C(N[C@@H]1CC[C@@]2(O)[C@H]3Cc4ccc(O)c5c4[C@@]2(CCN3CC2CC2)[C@H]1O5)c1cccc2cc[nH]c12` [Compound 15, 17-Cyclopropylmethyl-3,14β-dihydroxy-4,5α-epoxy-6β-(indole-7-carboxamido)morphinan]: the Ki worked out at 0.52 ± 0.094 nM on KOR and 30.4 ± 9.49 nM at DOR [2]. In addition, at MOR [4], the “Emax(% DAMGO) ± SEM” value came out at 32.0 ± 4.6 % DAMGO. Besides, the “Antinociceptive effect (agonism)” value in the series with Swiss Webster mice [3] was “partial opioid agonists”. The “Blockage” value in the series on Swiss Webster mice [5] was “effectively blocked morphine-mediated antinociception”.

Regarding `Cl.O=C(N[C@H]1CC[C@@]2(O)[C@H]3Cc4ccc(O)c5c4[C@@]2(CCN3CC2CC2)[C@H]1O5)c1cc2ccccc2cn1` [NAQ, 17-Cyclopropylmethyl-3,14β-Dihydroxy-4,5α-Epoxy-6α-(Isoquinoline-3-Carboxamido)morphinan], the Ki at DOR [6] is 162 ± 15 nM.

On to `Cl.O=C(N[C@H]1CC[C@@]2(O)[C@H]3Cc4ccc(O)c5c4[C@@]2(CCN3CC2CC2)[C@H]1O5)c1cccc2cc[nH]c12` [Compound 6, 17-Cyclopropylmethyl-3,14β-dihydroxy-4,5α-epoxy-6α-(indole-7-carboxamido)morphinan], for which the Ki on KOR (setting [7]) was 1.69 ± 0.35 nM. Moreover, the Ki at DOR [2] (setting [8]) is 10.9 ± 2.94 nM. For the same compound, the “Emax(% DAMGO) ± SEM” value on MOR [4] came to 20.95 ± 4.43 % DAMGO. Further, in the series on Swiss Webster mice [5], the “Blockage” value is reported as “effectively blocked morphine-mediated antinociception” and the “AD50 (95% CL), opioid antagonist effect” value is on record as 2.39 (0.46-12.47) mg/kg. In addition, the “Escape jumps compared with naltrexone 1 mg/kg” value in the series on morphine-pelleted mice (1 mg/kg s.c., morphine-pelleted mice) is on record as “significantly less escape jumps than naltrexone”. In addition, the Diarrhea entry with morphine-pelleted mice (1 mg/kg, morphine pelleted mice (not in placebo pelleted mice)) was “produced diarrhea”. In the series on morphine-pelleted mice (setting [9]), the “Paw tremors compared with naltrexone 1 mg/kg” value was “significantly less paw tremors than naltrexone” and the “Wet-dog shakes compared with naltrexone 1 mg/kg” value was “significantly less wet-dog shakes than naltrexone”. In addition, the “Escape jumps compared with naltrexone 1 mg/kg” value in the series on morphine-pelleted mice (50 mg/kg s.c., morphine-pelleted mice, not significantly different) is “more escape jumps”. In the series on morphine-pelleted mice (50 mg/kg s.c., placebo-pelleted mice), the “Withdrawal symptoms in placebo-pelleted mice” value is given as “did not induce any significant withdrawal symptoms”.

On to `Cl.O=C(Cc1c[nH]c2ccccc12)N[C@@H]1CC[C@@]2(O)[C@H]3Cc4ccc(O)c5c4[C@@]2(CCN3CC2CC2)[C@H]1O5` [Compound 16, 17-Cyclopropylmethyl-3,14β-dihydroxy-4,5α-epoxy-6β-[2-(indol-3-yl)acetamido)morphinan], for which the Ki at KOR (setting [7]) was found to be 0.947 ± 0.114 nM; at DOR [2] (setting [8]) it was 37 ± 1.21 nM. The “Emax(% DAMGO) ± SEM” value at MOR [4] is 50.17 ± 7.75 % DAMGO. Further, the “Antinociceptive effect (agonism)” value in the series with Swiss Webster mice [3] is listed as “partial opioid agonists”.
